Test: Hydrogen peroxide remaining in solutions of PA or PEDOT-S/OH
Conditions: hydrogen peroxide solution, after 3 days
Description: The presence of ROS was determined using CellROX Green Reagent (ThermoFisher). Briefly, CellROX was added to cells for a final concentration of 5 μM and incubated for 30 mins at 37° C. Wells were washed 3× with PBS and fluorescence intensity was read at 485/520 nm using Cyation3. For solution studies, CellROX was added to solutions of PEDOT or PA containing 10 μM H2O2 at various time points.

C16-A2G2E4GIKVAV [PA]
peroxide still present: ~75%
